Laboratory results published in patent US8962673B2, “Use of melatonin for treating and/or preventing mucositis” (Universidad de Granada, priority 2011, dated 2015).
“Also recorded” adds a separate entry of the source.

What was measured:
[1] = in vivo; cited from earlier work
[2] = system: fibrosis and angiogenesis between the muscle fibers of the tongue; assay: Histology of rat tongue (hematoxylin-eosin, Masson Goldner's trichrome); type: in vivo; conditions: irradiated rats treated with melatonin (both treatments: 3% gel topical and parenteral) versus irradiated animals
Source text: (§1) The animals used in experiments were rats weighing 280 g, and they were subjected to ionizing radiations under controlled conditions in the Experimental Radiology Unit at the Biomedical Research Center in the University of Granada. The animals were subjected to full exposure of 50 grays (Gy). The irradiation dose used each day was 10 Gy administered at 100.75 cGy/min, 210 kilovolts (kV) and 12 milliamperes (mA), and placing the animal 40 cm away from the radiation source.
(§2) The different formulations were applied to the animals as follows. A topical application was applied in the oral cavity before irradiation, another one after, and successive applications were applied every 8 hours for 21 days. […]
(§3) […]

[3] = system: glutathione; assay: Glutathione levels (GSH, GSSG, GSSG/GSH) in tongue mitochondria of irradiated rats; type: in vivo, rat; conditions: i.p. 45 mg a day for 21 days, compared with 3% gel topical
Method: (§4) For topical administration in the oral cavity, the composition used was a hydrogel (gel) that comprised 1%, 3% or 5% melatonin (1, 3 or 5 grams of melatonin in 100 ml of the final volume of the composition, respectively) and in which 20% polyethylene and polypropylene copolymers were used as a gelling substance. Pluronic® F127 (poloxamer) was used as the polyethylene and polypropylene copolymers. 0.3% sodium benzoate was used as a preservative. 0.5% sweet orange essence was used. All the components used were acquired from FAGRON IBERICA, S.A.U., reference numbers: melatonin, 33457-27; Pluronic® F127, 33353-SP; sodium benzoate, 31360-12; orange essence, 30620-08. The chemical structure of melatonin is shown below: […]
as §3

[4] = system: mucositis caused by radiotherapy; assay: Macroscopic appearance of rat tongue / mucositis after irradiation; type: in vivo; conditions: irradiated rats
Method: For topical administration in the oral cavity, the composition used was a hydrogel (gel) that comprised 1%, 3% or 5% melatonin (1, 3 or 5 grams of melatonin in 100 ml of the final volume of the composition, respectively) and in which 20% polyethylene and polypropylene copolymers were used as a gelling substance. Pluronic® F127 (poloxamer) was used as the polyethylene and polypropylene copolymers. 0.3% sodium benzoate was used as a preservative. 0.5% sweet orange essence was used. All the components used were acquired from FAGRON IBERICA, S.A.U., reference numbers: melatonin, 33457-27; Pluronic® F127, 33353-SP; sodium benzoate, 31360-12; orange essence, 30620-08. The chemical structure of melatonin is shown below:
as §1
The different formulations were applied to the animals as follows. A topical application was applied in the oral cavity before irradiation, another one after, and successive applications were applied every 8 hours for 21 days. […] The formulations used in the animals used in experiments were as follows: Pluronic F-127 gel with 1%, 3% or 5% melatonin (1, 3 or 5 grams of melatonin/100 ml gel, respectively), applied three times a day topically in the oral cavity at a volume of 500 μl/each time, giving a total of 1.5 ml/day. Topical application in the oral cavity means that the animals ingest the gel applied in the buccal cavity.
The experiments were also conducted by administering to the animals the same melatonin concentration as that used with the 3% w/v hydrogel, but by intraperitoneal route, to see if plasma melatonin could reduce mucositis or if it is necessary to apply said molecule by topical route. For the parenteral route, an isotonic solution that comprised 70% v/v (volume/volume) of isotonic saline solution and 30% v/v of propylene glycol, measured in relation to the total volume of the solution, was used. A daily dose of 45 mg of melatonin was injected for 21 days. The animals were sacrificed 21 days after starting irradiation, like the animals treated with melatonin gel applied by topical route in the oral cavity.

[5] = system: mitochondrial respiratory chain complexes CI, CIII, CIV and CV; assay: Expression of mitochondrial respiratory chain complexes in rat tongue by Western blot; type: in vivo; conditions: irradiated rats; i.p. 45 mg a day for 21 days
Source text: as §1, §2, §3

[6] = system: glutathione reductase (GRd); assay: Activity and expression of glutathione reductase in rat tongue mitochondria; type: in vivo; conditions: irradiated rats; i.p. 45 mg a day for 21 days
Method: as §4, §3

[7] = system: glutathione peroxidase (GPx); assay: Activity and expression of glutathione peroxidase in rat tongue mitochondria; type: in vivo; conditions: irradiated rats
Method: as §4, §3

[8] = Melatonin levels in rat tongue mitochondria; type: in vivo; conditions: irradiated rats; parenteral (i.p.) 45 mg a day
Source text: as §1, §2, §3

[9] = system: mitochondria; assay: Electron microscopy of rat tongue mitochondria; type: in vivo; conditions: irradiated rats; parenteral route
Source text: as §1, §2, §3

melatonin levels in the tongue [8]: not restored
Compound: COc1ccc2[nH]cc(CCNC(C)=O)c2c1 [melatonin, N-acetyl-5-methoxytryptamine]
half-life [1]: 30 min
fibrosis and angiogenesis between the muscle fibers of the tongue [2]: decrease in fibrosis and in angiogenesis
GSSG/GSH ratio in tongue mitochondria [3]: higher GSSG/GSH ratio
restoring GSH and reducing GSSG in tongue mitochondria [3]: lower efficacy
minimum effective dose for treating mucositis, daily dose ([4]; 3% gel applied three times a day, 500 μl in each application): 45 mg
macroscopic tongue lesions (morphological appearance of the tongue) ([4]; 3% w/v gel, topical application in the oral cavity): completely normalizes the morphological appearance of the tongue
minimum effective dose for treating mucositis, melatonin concentration in the gel ([4]; gel applied three times a day, 500 μl in each application): 3%
mucositis caused by radiotherapy (macroscopic tongue lesions) ([4]; gel topical in the oral cavity, three times a day, 21 days): complete prevention of mucositis
macroscopic tongue lesions / mucositis ([4]; parenteral (i.p.) 45 mg a day for 21 days): unable to restore tongue lesions after irradiation; also recorded: no benefit whatsoever
expression of complex V or ATP synthase [5]: completely unable to restore the expression of complex V
activity and expression of GRd [6]: unable to restore the enzyme
activity and expression of GPx ([7]; 3% w/v gel topical in the oral cavity, 45 mg a day): partially counteract the effect of irradiation
activity and expression of GPx ([7]; i.p. 45 mg a day for 21 days): partially counteract the effect of irradiation
mitochondrial damage by electron microscopy (broken mitochondria) [9]: broken mitochondria are observed
